Experiments:
[1] = biological target: T1, NAD-dependent protein deacetylase sirtuin-1 (Homo sapiens, UniProt Q96EB6); test: Inhibition of human His6 or GST-tagged SIRT1 after 10 mins by HPLC analysis in presence of beta-NAD
T1 sequence (Q96EB6 whole entry): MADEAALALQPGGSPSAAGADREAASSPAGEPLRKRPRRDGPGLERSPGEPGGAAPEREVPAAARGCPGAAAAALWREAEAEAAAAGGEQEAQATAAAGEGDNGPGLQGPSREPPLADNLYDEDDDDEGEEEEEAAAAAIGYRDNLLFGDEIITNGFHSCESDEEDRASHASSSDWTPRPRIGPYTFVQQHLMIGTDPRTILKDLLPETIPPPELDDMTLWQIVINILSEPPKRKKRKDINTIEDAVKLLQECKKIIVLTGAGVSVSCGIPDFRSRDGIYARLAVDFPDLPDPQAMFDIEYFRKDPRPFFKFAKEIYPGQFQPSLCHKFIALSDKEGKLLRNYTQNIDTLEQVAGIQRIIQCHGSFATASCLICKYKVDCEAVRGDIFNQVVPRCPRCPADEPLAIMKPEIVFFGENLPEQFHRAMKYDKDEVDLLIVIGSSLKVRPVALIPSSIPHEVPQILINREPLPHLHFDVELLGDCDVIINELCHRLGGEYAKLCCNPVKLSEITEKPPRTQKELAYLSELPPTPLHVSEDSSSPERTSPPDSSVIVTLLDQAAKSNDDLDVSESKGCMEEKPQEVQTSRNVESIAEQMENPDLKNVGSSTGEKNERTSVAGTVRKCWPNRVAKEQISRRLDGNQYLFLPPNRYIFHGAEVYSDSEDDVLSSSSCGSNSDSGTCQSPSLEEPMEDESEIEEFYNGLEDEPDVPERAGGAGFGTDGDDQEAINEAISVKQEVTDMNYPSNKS

[2] = biological target: T2, NAD-dependent protein deacetylase sirtuin-2 (Homo sapiens, UniProt Q8IXJ6); test: Inhibition of human His6-tagged SIRT2 after 12 mins by HPLC analysis in presence of beta-NAD
T2 sequence (Q8IXJ6 whole entry): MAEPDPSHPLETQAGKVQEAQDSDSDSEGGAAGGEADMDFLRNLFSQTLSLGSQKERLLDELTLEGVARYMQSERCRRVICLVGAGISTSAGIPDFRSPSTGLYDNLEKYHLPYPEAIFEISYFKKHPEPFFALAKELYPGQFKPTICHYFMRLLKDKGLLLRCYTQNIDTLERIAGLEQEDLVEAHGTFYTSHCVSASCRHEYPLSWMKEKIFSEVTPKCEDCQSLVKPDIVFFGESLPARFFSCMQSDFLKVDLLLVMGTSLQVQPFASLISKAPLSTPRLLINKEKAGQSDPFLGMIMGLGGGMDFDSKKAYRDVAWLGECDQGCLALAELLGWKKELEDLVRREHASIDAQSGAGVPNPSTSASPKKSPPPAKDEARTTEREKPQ

Homo sapiens [3] = species on record: Homo sapiens; test: Selectivity ratio of IC50 for human His6 or GST-tagged SIRT1 to IC50 for human His6-tagged SIRT3
[4] = biological target: T3, NAD-dependent protein deacetylase sirtuin-3, mitochondrial (Homo sapiens, UniProt Q9NTG7); test: Inhibition of human His6-tagged SIRT3 after 10 mins by HPLC analysis in presence of beta-NAD
T3 sequence (Q9NTG7 whole entry): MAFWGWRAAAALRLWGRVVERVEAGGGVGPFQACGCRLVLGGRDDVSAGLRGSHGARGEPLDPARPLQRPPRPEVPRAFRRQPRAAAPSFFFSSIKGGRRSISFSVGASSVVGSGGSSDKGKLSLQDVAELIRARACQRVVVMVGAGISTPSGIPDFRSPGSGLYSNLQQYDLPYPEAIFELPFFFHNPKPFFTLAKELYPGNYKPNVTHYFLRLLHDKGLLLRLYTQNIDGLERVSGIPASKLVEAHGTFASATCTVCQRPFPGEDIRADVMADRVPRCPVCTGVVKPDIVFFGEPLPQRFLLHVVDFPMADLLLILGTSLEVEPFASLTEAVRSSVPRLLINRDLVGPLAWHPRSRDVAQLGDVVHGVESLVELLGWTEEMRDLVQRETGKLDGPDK

Homo sapiens [5] = species on record: Homo sapiens; test: Selectivity ratio of IC50 for human His6-tagged SIRT2 to IC50 for human His6-tagged SIRT3
[6] = biological target: T3, NAD-dependent protein deacetylase sirtuin-3, mitochondrial; test: Inhibition of human His6-tagged SIRT3 after 10 mins by Dixon plot analysis in presence of beta-NAD
[7] = biological target: T2, NAD-dependent protein deacetylase sirtuin-2; test: Inhibition of human His6-tagged SIRT2 after 12 mins by Dixon plot analysis in presence of beta-NAD
[8] = biological target: T1, NAD-dependent protein deacetylase sirtuin-1; test: Inhibition of human His6 or GST-tagged SIRT1 after 10 mins by Dixon plot analysis in presence of beta-NAD
[9] = biological target: NAD-dependent protein deacylase sirtuin-5, mitochondrial (Homo sapiens, UniProt Q9NXA8); test: Inhibition of human GST-tagged SIRT5 after 5 mins by HPLC analysis in presence of beta-NAD
[10] = biological target: NAD-dependent protein deacylase sirtuin-6 (Homo sapiens, UniProt Q8N6T7); test: Inhibition of human GST-tagged SIRT6 after 12 mins by HPLC analysis in presence of beta-NAD
Chain of NAD-dependent protein deacylase sirtuin-6 (Q8N6T7 whole entry): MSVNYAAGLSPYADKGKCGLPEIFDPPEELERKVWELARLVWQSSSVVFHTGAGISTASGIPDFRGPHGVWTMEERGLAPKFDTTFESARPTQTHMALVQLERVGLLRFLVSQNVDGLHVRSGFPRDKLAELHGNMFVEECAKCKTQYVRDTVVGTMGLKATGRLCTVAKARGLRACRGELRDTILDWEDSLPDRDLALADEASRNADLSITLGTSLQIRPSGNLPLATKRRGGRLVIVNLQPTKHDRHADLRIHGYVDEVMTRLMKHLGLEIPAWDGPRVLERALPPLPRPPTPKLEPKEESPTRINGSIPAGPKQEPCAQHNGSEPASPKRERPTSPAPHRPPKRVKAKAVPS

Chain of NAD-dependent protein deacylase sirtuin-5, mitochondrial (Q9NXA8 whole entry): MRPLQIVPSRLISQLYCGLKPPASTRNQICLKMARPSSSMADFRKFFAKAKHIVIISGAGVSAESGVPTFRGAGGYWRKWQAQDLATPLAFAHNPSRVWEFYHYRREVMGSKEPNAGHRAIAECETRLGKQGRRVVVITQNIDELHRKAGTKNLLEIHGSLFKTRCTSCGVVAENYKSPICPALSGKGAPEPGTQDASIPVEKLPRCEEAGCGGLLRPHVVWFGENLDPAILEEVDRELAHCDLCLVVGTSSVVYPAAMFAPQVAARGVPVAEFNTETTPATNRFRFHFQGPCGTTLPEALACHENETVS

SMILES | IC50 [1] [µM] | IC50 [2] [µM] | IC50 [4] [µM] | also measured
CCC[C@H](NC(=O)[C@H](CCCCNC(C)=S)NC(=O)[C@H](CCCCNC(C)=O)NC(C)=O)C(N)=O | 2.85 | 1.38 | – | –
CC(=O)NCCCC[C@H](NC(=O)[C@H](CCCCNC(C)=S)NC(=O)[C@H](CCc1ccccc1)NC(C)=O)C(N)=O | 3.65 | 5.52 | – | –
CC(=O)NC[C@H](NC(=O)[C@H](CCCCNC(C)=S)NC(=O)[C@H](Cc1csc2ccccc12)NC(C)=O)C(N)=O | 9.6 | 8.75 | 1.75 | Ratio IC50 (Homo sapiens [3]): 5.5; Ratio IC50 (Homo sapiens [5]): 5
CC(=O)NCCCC[C@H](NC(=O)[C@H](CCCCNC(C)=S)NC(=O)[C@H](Cc1csc2ccccc12)NC(C)=O)C(N)=O | – | – | – | IC50 [6]: 1.44 µM; IC50 [7]: 14.5 µM; IC50 [8]: 14.4 µM
CC(=O)NC[C@H](NC(=O)[C@H](CCCCNC(C)=S)NC(=O)[C@H](Cc1ccc2ccccc2c1)NC(C)=O)C(N)=O | – | – | – | Ratio IC50 (Homo sapiens [3]): 9.9; IC50 [9]: 2000 µM; IC50 [10]: 307 µM; IC50 [6]: 1.91 µM; IC50 [7]: 17.8 µM; IC50 [8]: 18.9 µM; Ratio IC50 (Homo sapiens [5]): 9.3
CC[C@H](NC(=O)[C@H](CCCCNC(C)=S)NC(=O)[C@H](CCCCNC(C)=O)NC(C)=O)C(N)=O | 1.96 | 1.41 | 1.1 | –
CC(=O)NCCCC[C@H](NC(C)=O)C(=O)N[C@@H](CCCCNC(C)=S)C(=O)N[C@@H](Cc1ccc2ccccc2c1)C(N)=O | 0.64 | 2.26 | 2.1 | –
CC(=O)NCCCC[C@H](NC(C)=O)C(=O)N[C@@H](CCCCNC(C)=S)C(=O)N[C@@H](Cc1ccc(-c2ccccc2)cc1)C(N)=O | 2.4 | 3.92 | 3.2 | –
CC(=O)NCCCC[C@H](NC(C)=O)C(=O)N[C@@H](CCCCNC(C)=S)C(=O)N[C@@H](CNC(C)=O)C(N)=O | 2.32 | 1.51 | 0.36 | –
CCCC[C@H](NC(C)=O)C(=O)N[C@@H](CCCCNC(C)=S)C(=O)N[C@@H](CCCCNC(C)=O)C(N)=O | 2.78 | 0.81 | – | –
CCC[C@H](NC(C)=O)C(=O)N[C@@H](CCCCNC(C)=S)C(=O)N[C@@H](CCCCNC(C)=O)C(N)=O | 10.7 | 7.71 | 2.1 | –
CC(=O)NCCCC[C@H](NC(=O)[C@H](CCCCNC(C)=S)NC(=O)[C@H](Cc1ccc2ccccc2c1)NC(C)=O)C(N)=O | – | – | – | IC50 [6]: 1.29 µM; IC50 [7]: 12 µM; IC50 [8]: 12.6 µM

Now from value to compound, other results behind:

IC50 [1] [µM] | IC50 [2] [µM] | IC50 [4] [µM] | SMILES | also measured
6.6 | 11.9 | 1.8 | CC(=O)NC[C@H](NC(=O)[C@H](CCCCNC(C)=S)NC(=O)[C@H](CNC(C)=O)NC(C)=O)C(N)=O | Ratio IC50 (Homo sapiens [3]): 3.7; Ratio IC50 (Homo sapiens [5]): 6.6
3.03 | 4.5 | – | CC(=O)NCCCC[C@H](NC(=O)[C@H](CCCCNC(C)=S)NC(=O)[C@H](Cc1ccc(-c2ccccc2)cc1)NC(C)=O)C(N)=O | –
2.13 | 1.34 | – | CC[C@H](NC(C)=O)C(=O)N[C@@H](CCCCNC(C)=S)C(=O)N[C@@H](CCCCNC(C)=O)C(N)=O | –
0.63 | 5.1 | – | CCCC[C@H](NC(=O)[C@H](CCCCNC(C)=S)NC(=O)[C@H](CCCCNC(C)=O)NC(C)=O)C(N)=O | –
1.15 | 2.38 | 1.4 | CC(=O)NCCCC[C@H](NC(C)=O)C(=O)N[C@@H](CCCCNC(C)=S)C(=O)N[C@@H](Cc1csc2ccccc12)C(N)=O | –
6.6 | 8.32 | 1.62 | CC(=O)NC[C@H](NC(=O)[C@H](CCCCNC(C)=S)NC(=O)[C@H](Cc1ccc(-c2ccccc2)cc1)NC(C)=O)C(N)=O | Ratio IC50 (Homo sapiens [3]): 4.1; Ratio IC50 (Homo sapiens [5]): 5.1
1.45 | 0.65 | – | CC(=O)NCCCC[C@H](NC(C)=O)C(=O)N[C@@H](CCCCNC(C)=S)C(=O)N[C@@H](CCc1ccccc1)C(N)=O | –
6.86 | 7.76 | 1 | CC(=O)NCCCC[C@H](NC(=O)[C@H](CCCCNC(C)=S)NC(=O)[C@H](CNC(C)=O)NC(C)=O)C(N)=O | –
